The source of these data is patent publication US8563616B2, “Desensitizing drug product” (priority 2009, dated 2013).

A short description of data set [1]: pKa and ionization of lidocaine. Format: physicochemical. The note with it: pH 8.9.
For data set [2] the following is noted: Melt System III, cited from earlier work; for Percentage in aq: amount in aqueous phase/total amount in whole system × 100; for Percentage in oil: amount in oil phase/total amount in whole system × 100; for Conc in aq: g per 100 g of aqueous phase; for Conc in oil: g per 100 g of oil phase.
For data set [3] the following is noted: mixture containing 25% ethyl alcohol, 5% lidocaine, pH 9.2 phosphate buffer; cited from earlier work.
For data set [4] the following is noted: in the mixtures that formed a homogenous oil; cited from earlier work.

Where two headings read alike, the source gives them in different places.

In the case of `CCN(CC)CC(=O)Nc1c(C)cccc1C` [Lidocaine, lidocaine], the ionized in data set [1] was 10%. Further, in data set [2], the Percentage in aq was 20.80%, the Percentage in oil entry is recorded as “approximately 80%”, the Conc in aq is on record as 1.09% and the Conc in oil is 87.00%. Moreover, in data set [2] (listed as L), the Percentage in oil is listed as 79.20%. In addition, in data set [3], the “concentration of lidocaine in the oil” value is recorded as 73 % (w:w).
For the molecule `Cc1ccc(C(C)C)c(O)c1` [Thymol, thymol], in data set [2], the Percentage in aq is listed as 14.88%, the Percentage in oil result is given as “approximately 85%”, the Conc in aq is recorded as 0.09% and the Conc in oil is reported as 10.60%. In data set [2] (listed as T), the Percentage in oil is listed as 85.13%. Also, the chemical stability entry in data set [4] is given as “chemically stable”.
